How the values were obtained:
Canis familiaris [1] = assay: In-vivo beta-adrenergic blocking activity in iv dosed mongrel dog assessed as blockade of isoproterenol-induced hypotension by measuring mean arterial pressure; type: functional; conditions: Canis lupus familiaris, Artery
Rattus norvegicus [2] = assay: Antihypertensive activity in spontaneously hypertensive rat assessed as maximum fall in mean arterial pressure at 1.25 mg/kg, po; type: functional, Artery
Rattus norvegicus [3] = assay: Antihypertensive activity in spontaneously hypertensive rat assessed as maximum fall in mean arterial pressure at 5 mg/kg, po; type: functional, Artery
Canis familiaris [4] = assay: Peripheral vasodilating activity in mongrel dog assessed as increase in iliac blood flow at 1600 ug, ia in presence of isoproterenol and 1000 ug/kg timolol; type: functional, Canis lupus familiaris, Artery
Canis familiaris [5] = species: Canis familiaris; assay: Peripheral vasodilating activity in mongrel dog assessed as increase in iliac blood flow at 1600 ug, ia; type: functional, Canis lupus familiaris, Artery
Canis familiaris [6] = species: Canis familiaris; assay: Peripheral vasodilating activity in mongrel dog assessed as increase in iliac blood flow at 250 ug, ia; type: functional, Canis lupus familiaris, Artery
Canis familiaris [7] = assay: In-vivo beta-adrenergic blocking activity in iv dosed mongrel dog assessed as blockade of isoproterenol-induced tachycardia by measuring heart rate; type: functional; conditions: Canis lupus familiaris
Rattus norvegicus [8] = assay: Antihypertensive activity in spontaneously hypertensive rat assessed as maximum fall in mean arterial pressure at 20 mg/kg, po; type: functional, Artery
Canis familiaris [9] = assay: In-vivo beta-adrenergic blocking activity in iv dosed mongrel dog assessed as blockade of isoproterenol-induced bronchodilation by measuring pulmonary pressure; type: functional; conditions: Canis lupus familiaris
Canis familiaris [10] = assay: Peripheral vasodilating activity in mongrel dog assessed as increase in iliac blood flow at 1600 ug, ia in presence of isoproterenol and 500 ug/kg timolol; type: functional, Canis lupus familiaris, Artery
Canis familiaris [11] = assay: Peripheral vasodilating activity in mongrel dog assessed as increase in iliac blood flow at 1600 ug, ia in presence of isoproterenol and 2000 ug/kg timolol; type: functional, Canis lupus familiaris, Artery
Rattus norvegicus [12] = assay: Antihypertensive activity in spontaneously hypertensive rat assessed as maximum fall in mean arterial pressure at 0.312 mg/kg, po; type: functional, Artery

Structure (SMILES)	ED50 (Canis familiaris [1])	Activity (Rattus norvegicus [2])	Activity (Rattus norvegicus [3])	Activity (Canis familiaris [4])	Activity (Canis familiaris [5])	Activity (Canis familiaris [6])	ED50 (Canis familiaris [7])	Activity (Rattus norvegicus [8])	ED50 (Canis familiaris [9])	Activity (Canis familiaris [10])	Activity (Canis familiaris [11])	Activity (Rattus norvegicus [12])
Cc1cc(-c2ncc(C(F)(F)F)[nH]2)ccc1OCC(O)CNC(C)(C)C (racemic)	0.022 mg/kg	23 mmHg	36 mmHg	20 mL/min	52 mL/min	6 mL/min	0.011 mg/kg	–	–	–	–	–
Cc1c(OCC(O)CNC(C)(C)C)ccc(-c2ncc(C(F)(F)F)[nH]2)c1C (racemic)	0.582 mg/kg	27 mmHg	24 mmHg	19 mL/min	23 mL/min	–	0.071 mg/kg	30 mmHg	0.055 mg/kg	–	–	–
Cc1c[nH]c(-c2ccc(OCC(O)CNC(C)(C)C)cc2)n1 (racemic)	> 1 mg/kg	–	6 mmHg	–	101 mL/min	–	0.106 mg/kg	27 mmHg	–	75 mL/min	62 mL/min	–
CC(C)(C)NCC(O)COc1ccc(-c2ncc(-c3ccc(F)cc3)[nH]2)cc1 (racemic)	0.139 mg/kg	–	–	–	42 mL/min	–	0.019 mg/kg	13 mmHg	–	–	32 mL/min	–
Cc1cc(OC[C@@H](O)CNC(C)(C)C)ccc1-c1ncc(C(F)(F)F)[nH]1	0.0927 mg/kg	36 mmHg	51 mmHg	39 mL/min	36 mL/min	–	0.0157 mg/kg	–	0.0364 mg/kg	–	–	–
COc1ccc(-c2cnc(-c3ccc(OC[C@@H](O)CNC(C)(C)C)cc3)[nH]2)cc1.O=C(O)/C=C\C(=O)O	0.525 mg/kg	10 mmHg	28 mmHg	–	26 mL/min	–	0.027 mg/kg	39 mmHg	0.48 mg/kg	–	16 mL/min	–
CC(C)(C)NC[C@H](O)COc1ccc(-c2ncc[nH]2)cc1	> 1 mg/kg	19 mmHg	–	–	30 mL/min	–	0.067 mg/kg	41 mmHg	–	–	0 mL/min	–
Cc1cc(OCC(O)CNC(C)(C)C)cc(C)c1-c1ncc(C(F)(F)F)[nH]1 (racemic)	> 1 mg/kg	31 mmHg	20 mmHg	10 mL/min	5 mL/min	–	0.091 mg/kg	30 mmHg	0.163 mg/kg	–	–	–
CC(C)(C)NCC(O)COc1ccc(-c2ncc(-c3ccc(Cl)cc3)[nH]2)cc1 (racemic)	0.137 mg/kg	32 mmHg	35 mmHg	–	–	–	0.0562 mg/kg	32 mmHg	0.0827 mg/kg	–	–	–
COc1ccc(-c2cnc(-c3ccc(OCC(O)CNC(C)(C)C)cc3)[nH]2)cc1 (racemic)	> 1 mg/kg	21 mmHg	29 mmHg	–	25 mL/min	–	0.04 mg/kg	–	–	–	20 mL/min	12 mmHg
CC(C)(C)NCC(O)COc1ccc(-c2ncc(C(F)(F)F)[nH]2)c(Cl)c1Cl (racemic)	–	–	16 mmHg	–	–	–	–	49 mmHg	–	–	–	–
CC(C)(C)NCC(O)COc1ccc(-c2ncc(-c3ccco3)[nH]2)cc1 (racemic)	0.3 mg/kg	–	–	–	80 mL/min	–	0.015 mg/kg	35 mmHg	–	–	40 mL/min	–
CC(C)(C)NCC(O)COc1ccc(-c2ncc(C(F)(F)F)[nH]2)cc1Cl (racemic)	0.017 mg/kg	–	5 mmHg	–	17 mL/min	5 mL/min	0.016 mg/kg	6 mmHg	0.015 mg/kg	–	–	–
CC(=O)Nc1ccc(OCC(O)CNC(C)C)cc1 (configuration not stated) [PRACTOLOL]	1 mg/kg	–	–	–	–	–	0.115 mg/kg	–	1.08 mg/kg	–	–	–
CC(C)(C)NCC(O)COc1ccc(-c2nc(-c3cccs3)c[nH]2)cc1 (racemic)	0.635 mg/kg	36 mmHg	35 mmHg	–	28 mL/min	–	0.016 mg/kg	58 mmHg	–	–	10 mL/min	12 mmHg
Cc1cc(OCC(O)CNC(C)(C)C)ccc1-c1ncc(C(F)(F)F)[nH]1 (racemic)	0.361 mg/kg	32 mmHg	43 mmHg	–	27 mL/min	11 mL/min	0.0227 mg/kg	44 mmHg	0.0298 mg/kg	–	–	–
